Like-named read-outs stand apart in the source and are kept apart here.

Here are results for 20 compounds from patent US11384078B2, “5,6-fused-bicyclic compounds and compositions for the treatment of parasitic diseases” (NOVARTIS AG, priority 2017, dated 2022).

Holding throughout (format): cell-based
Experiment [1] concerns L. donovani HU3 strain in mouse peritoneal macrophages. The experiment in a line: Assay for inhibition of parasitemia of Leishmania donovani in mouse macrophages (SYBR Green nuclei count, high-content imaging). As to conditions: Leishmania donovani, Peritoneal macrophage, L. donovani in mouse peritoneal macrophages; read-out: L. donovani in Mouse Macrophages EC50. From the text:
Assay for Inhibition of Parasitemia of Leishmania donovani in Mouse Macrophages
The assay measures the increase in the parasite number in the assayed plate well using a DNA intercalating dye, SYBR Green I® dye (INVITROGEN) to stain Leishmania cell nuclei. L. donovani HU3 strain is propagated by infecting BALB/c mice through tail vein injection with 10^7 Leishmania parasites. Infected mice are allowed to develop infection during 9-11 weeks post-infection. During this time, the parasites accumulate in the infected mouse spleens to large numbers, and the infected mice serve as the source of parasites for the in vitro measurement of compound efficacies. To assay a compound for anti-leishmanial activity, peritoneal macrophages isolated from non-infected BALB/c mice are seeded into 384-well plates at density 2×10^4 macrophages per well in […] of medium (RPM11640, 10% fetal serum albumin, 10 mM HEPES, 1 mM sodium pyruvate, 1% Pen/Strep). Subsequently, the seeded plates are placed into an incubator set to maintain 37° C. temperature and atmosphere with 5% CO2.
The next day, Leishmania parasites are isolated from the spleens of mice infected for 9-11 weeks and 4×10^5 isolated parasites in […] of the above media are added to each plate well. Plates are then returned into incubators and infection is allowed to proceed for 24 hours. After the infection of macrophages is completed, […] of compounds of the invention in the above medium, which also contains 5% DMSO, are added to plate wells containing infected macrophages. At the same time control compounds (miltefosine and amphotericin B) and DMSO are added to plates to serve as the positive and negative controls, respectively. After the compound addition, the plates are returned into incubator and cells infected with parasites are cultured for 5 days. At the end of cultivation, […] of 8% paraformaldehyde is added to plate wells and incubated for 15 min at room temperature. Following the incubation, the paraformaldehyde from plate wells is aspirated, and […] of PBS containing 0.2% Triton X-100 is added to wells. After 15 min incubation, the solution is aspirated from wells again, and replaced with Sybr® Green Dye solution in PBS (1:125,000 dilution). Infected cells are imaged with Evotec Opera high-content microscope, and the number of parasites in well is determined by counting parasite nuclei visualized by staining with Sybr® Green dye.

For experiment [2], the system named is Trypanosoma cruzi amastigotes cultured in 3T3 fibroblast cells. The experiment in a line: Assay for growth inhibition of kinetoplastid parasite Trypanosoma cruzi (beta-galactosidase Tulahuen strain, CPRG readout). Conditions: Trypanosoma cruzi, Fibroblast, read-out: Buckner infectious T. cruzi EC50. Put shortly: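 3T3 fibroblasts (1,000 cells/well) plated overnight, treated with compound in DMSO, then infected with 10,000 Lac-Z-expressing Tulahuen trypomastigotes. After 6 days, 0.6 mM CPRG with 0.6% NP-40 added for 2 h at room temperature; absorbance gives relative intracellular amastigote numbers. Benznidazole and nifurtimox serve as positive controls.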

The test system of experiment [3] is Leishmania donovani axenic amastigote. Nature of the experiment: In vitro assay for growth inhibition of Leishmania donovani axenic amastigote (Cell TiterGlo luminescence). Conditions: Leishmania donovani, read-out: L. donovani amastigotes EC50. Put shortly:
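Axenic L. donovani amastigotes (9600/well) grown at 37 °C, 5% CO2 in supplemented RPMI 1640, pH 5.5, with compound added from DMSO. After two days, viability read by CellTiter-Glo luminescence against DMSO and control-compound wells.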
Background: ATP-based viability assays read luminescence as a measure of living cells.

For experiment [4], the system named is Trypanosoma brucei brucei (Lister 427) strain. Nature of the experiment: Assay for growth inhibition against Trypanosoma brucei brucei (Cell TiterGlo ATP luminescence). As to conditions: Trypanosoma brucei, read-out: T. Brucei (HAT) EC50. A digest of the protocol:
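T. b. brucei Lister 427 grown in HMI-9 with 10% FBS and 10% serum plus, seeded at 10,000 parasites/mL with 10-point threefold compound dilutions in duplicate, 37 °C for 2 days. Viability read as ATP luminescence 30 min after Cell TiterGlo; IC50 versus untreated controls.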

Where [5] appears, read: T. cruzi amastigotes in 3T3 fibroblast cells.
Setting [6] is: L. donovani axenic amastigotes in vitro.

In the case of `CC(C)(C)c1cnc2nn(-c3cc(NC(=O)N4CC[C@@H](F)C4)ccc3F)cc2c1` [Compound 47, (3R)-N-(3-{5-tert-butyl-2H-pyrazolo[3,4-b]pyridin-2-yl}-4-fluorophenyl)-3-fluoropyrrolidine-1-carboxamide], the EC50 in experiment [1] amounted to 27 nM; in experiment [2] (setting [5]), 2.8 nM; in experiment [3] (setting [6]) it was 23 nM.

For the compound `CC(C)CCc1cnc2nn(-c3cc(NC(=O)c4ccco4)ccc3F)cc2c1` [Compound 63, N-{4-fluoro-3-[5-(3-methylbutyl)-2H-pyrazolo[3,4-b]pyridin-2-yl]phenyl}furan-2-carboxamide], the EC50 in experiment [1] was found to be 90 nM; in experiment [2] (setting [5]) it was 14 nM; in experiment [3] (setting [6]) it was 89 nM.

For the compound `O=C(Nc1ccc(F)c(-n2cc3cc(C4CCCC4)cnc3n2)c1)c1ccco1` [Compound 56, N-(3-{5-cyclopentyl-2H-pyrazolo[3,4-b]pyridin-2-yl}-4-fluorophenyl)furan-2-carboxamide], the values for the EC50 in experiment [1] and in experiment [3] (setting [6]) were 550 nM and 240 nM, respectively.

For the compound `CCC(C)c1cnc2nn(-c3cc(NC(=O)N4CC(F)(F)C4)ccc3F)cc2c1` (stereo not shown) [Compound 36, N-{3-[5-(butan-2-yl)-2H-pyrazolo[3,4-b]pyridin-2-yl]-4-fluorophenyl}-3,3-difluoroazetidine-1-carboxamide], the EC50 in experiment [1] worked out at 250 nM; in experiment [3] (setting [6]), 210 nM.

As to `O=C(Nc1ccc(F)c(-n2cc3cc(C(F)(F)F)cnc3n2)c1)N1CCC1` [Compound 320, N-{4-fluoro-3-[5-(trifluoromethyl)-2H-pyrazolo[3,4-b]pyridin-2-yl]phenyl}azetidine-1-carboxamide], the EC50 is 5 nM in experiment [4] (T. brucei brucei (Lister 427)), 2 nM in experiment [2] (setting [5]) and 8 nM in experiment [3] (setting [6]).

On to `CCN(C)C(=O)Nc1ccc(F)c(-n2cc3cc(C(C)C)cnc3n2)c1` [Compound 224, 3-ethyl-1-{4-fluoro-3-[5-(propan-2-yl)-2H-pyrazolo[3,4-b]pyridin-2-yl]phenyl}-3-methylurea], for which the EC50 in experiment [4] (T. brucei brucei (Lister 427)) was 67 nM; in experiment [2] (setting [5]), 46 nM; in experiment [3] (setting [6]) it was 111 nM.

Turning to `Cc1nc(C)c(C(=O)Nc2ccc(F)c(-n3cc4cc(-c5ncccc5C)cnc4n3)c2)o1` [Compound 1, N-(4-fluoro-3-(5-(3-methylpyridin-2-yl)-2H-pyrazolo[3,4-b]pyridin-2-yl)phenyl)-2,4-dimethyloxazole-5-carboxamide], the concentration for a half-maximal effect (EC50) was less than 23 nM in experiment [4], 5.2 nM in experiment [2] and 7.1 nM in experiment [3].

On to `O=C(Nc1ccc(F)c(-n2cc3cc(C(F)(F)F)cnc3n2)c1)N1CC(F)C1` [Compound 321, 3-fluoro-N-{4-fluoro-3-[5-(trifluoromethyl)-2H-pyrazolo[3,4-b]pyridin-2-yl]phenyl}azetidine-1-carboxamide], for which the concentration for a half-maximal effect (EC50) in experiment [4] (T. brucei brucei (Lister 427)) is 5 nM; in experiment [2] (setting [5]), 11 nM; in experiment [3] (setting [6]), 18 nM.

As to `O=C(Nc1ccc(F)c(-n2cc3cc(C4CCC4)cnc3n2)c1)N1CC[C@@H](F)C1` [Compound 45, (3R)-N-(3-{5-cyclobutyl-2H-pyrazolo[3,4-b]pyridin-2-yl}-4-fluorophenyl)-3-fluoropyrrolidine-1-carboxamide], the half-maximal effective concentration (EC50) in experiment [4] (T. brucei brucei (Lister 427)) is less than 23 nM; in experiment [2] (setting [5]), 28 nM; in experiment [3] (setting [6]), 40 nM.

Regarding `O=C(Nc1ccc(F)c(-n2cc3cc(CC4CCC4)cnc3n2)c1)N1CC[C@@H](F)C1` [Compound 51, (3R)-N-{3-[5-(cyclobutylmethyl)-2H-pyrazolo[3,4-b]pyridin-2-yl]-4-fluorophenyl}-3-fluoropyrrolidine-1-carboxamide], the concentration for a half-maximal effect (EC50) in experiment [4] (T. brucei brucei (Lister 427)) is less than 23 nM; in experiment [2] (setting [5]), 19 nM; in experiment [3] (setting [6]), 15 nM.

For `CC(C)c1cnc2nn(-c3cc(NC(=O)N4CC5(CC5)C4)ccc3F)cc2c1` [Compound 222, N-{4-fluoro-3-[5-(propan-2-yl)-2H-pyrazolo[3,4-b]pyridin-2-yl]phenyl}-5-azaspiro[2.3]hexane-5-carboxamide], the values for the EC50 in experiment [4] (T. brucei brucei (Lister 427)), in experiment [2] (setting [5]) and in experiment [3] (setting [6]) were 73 nM, 45 nM and 80 nM, respectively.

With `O=C(Nc1ccc(F)c(-n2cc3cc(CC4CCC4)cnc3n2)c1)N1CC(F)(F)C1` [Compound 37, N-{3-[5-(cyclobutylmethyl)-2H-pyrazolo[3,4-b]pyridin-2-yl]-4-fluorophenyl}-3,3-difluoroazetidine-1-carboxamide], the EC50 in experiment [4] (T. brucei brucei (Lister 427)) is less than 23 nM; in experiment [2] (setting [5]), 26 nM; in experiment [3] (setting [6]), 23 nM.

Regarding `O=C(Nc1ccc(F)c(-n2cc3cc(N4CCN(CC(F)(F)F)CC4)cnc3n2)c1)N1CC(F)(F)C1` [Compound 252, 3,3-difluoro-N-(4-fluoro-3-{5-[4-(2,2,2-trifluoroethyl)piperazin-1-yl]-2H-pyrazolo[3,4-b]pyridin-2-yl}phenyl)azetidine-1-carboxamide], the EC50 in experiment [4] (T. brucei brucei (Lister 427)) came out at 5 nM; in experiment [2] (setting [5]) it was 22 nM; in experiment [3] (setting [6]), 183 nM.

In the case of `CC(C)c1cnc2nn(-c3cc(NC(=O)C4(C)CC(F)(F)C4)ccc3F)cc2c1` [Compound 117, 3,3-difluoro-N-{4-fluoro-3-[5-(propan-2-yl)-2H-pyrazolo[3,4-b]pyridin-2-yl]phenyl}-1-methylcyclobutane-1-carboxamide], the EC50 in experiment [4] (T. brucei brucei (Lister 427)) is 13000 nM; in experiment [2] (setting [5]), 5500 nM; in experiment [3] (setting [6]), 9300 nM.

In the case of `Cc1ccoc1C(=O)Nc1ccc(F)c(-n2cc3cc(C(C)C)cnc3n2)c1` [Compound 115, N-{4-fluoro-3-[5-(propan-2-yl)-2H-pyrazolo[3,4-b]pyridin-2-yl]phenyl}-3-methylfuran-2-carboxamide], the results for the EC50 in experiment [4] (T. brucei brucei (Lister 427)), in experiment [2] (setting [5]) and in experiment [3] (setting [6]) were less than 23 nM, 14 nM and 150 nM, respectively.

In the case of `COC(=O)C12CC(C(=O)Nc3ccc(F)c(-n4cc5cc(C(C)C)cnc5n4)c3)(C1)C2` [Compound 120, methyl 3-({4-fluoro-3-[5-(propan-2-yl)-2H-pyrazolo[3,4-b]pyridin-2-yl]phenyl}carbamoyl)bicyclo[1.1.1]pentane-1-carboxylate], the EC50 in experiment [4] (T. brucei brucei (Lister 427)) came out at 1800 nM; in experiment [2] (setting [5]), 4300 nM; in experiment [3] (setting [6]), 5200 nM.

Take `O=C(Nc1ccc(F)c(-n2cc3cc(-c4ccncc4)cnc3n2)c1)N1CC(F)C1` [Compound 182, 3-fluoro-N-(4-fluoro-3-(5-(pyridin-4-yl)-2H-pyrazolo[3,4-b]pyridin-2-yl)phenyl)azetidine-1-carboxamide]: the EC50 in experiment [4] (T. brucei brucei (Lister 427)) is less than 23 nM; in experiment [2] (setting [5]) it was 6.7 nM; in experiment [3] (setting [6]) it was 7.6 nM.

In the case of `O=C(Nc1ccc(F)c(-n2cc3cc(C(F)(F)F)cnc3n2)c1)N1CC[C@@H](F)C1` [Compound 322, (3R)-3-fluoro-N-{4-fluoro-3-[5-(trifluoromethyl)-2H-pyrazolo[3,4-b]pyridin-2-yl]phenyl}pyrrolidine-1-carboxamide], the EC50 in experiment [4] (T. brucei brucei (Lister 427)) was 5 nM; in experiment [2] (setting [5]), 3 nM; in experiment [3] (setting [6]), 12 nM.

For `O=C(Nc1ccc(F)c(-n2cc3cc(CC4CCC4)cnc3n2)c1)N1CC(F)C1` [Compound 26, N-{3-[5-(cyclobutylmethyl)-2H-pyrazolo[3,4-b]pyridin-2-yl]-4-fluorophenyl}-3-fluoroazetidine-1-carboxamide], the results for the EC50 in experiment [4] (T. brucei brucei (Lister 427)), in experiment [2] (setting [5]) and in experiment [3] (setting [6]) were less than 23 nM, 12 nM and 9.6 nM, respectively.

For `CC(C)c1cnc2nn(-c3cc(NC(=O)c4ccc(C#N)o4)ccc3F)cc2c1` [Compound 112, 5-cyano-N-{4-fluoro-3-[5-(propan-2-yl)-2H-pyrazolo[3,4-b]pyridin-2-yl]phenyl}furan-2-carboxamide], the results for the EC50 in experiment [4] (T. brucei brucei (Lister 427)), in experiment [2] (setting [5]) and in experiment [3] (setting [6]) were less than 23 nM, 2.8 nM and 16 nM, respectively.

For orientation: EC50 means the concentration at which the effect is half-maximal.
